What was measured:
[1] = tested on: Acinetobacter baumannii; experiment: Antimicrobial activity against Acinetobacter baumannii after 24 hrs by NCCLS-protocol based assay; type: functional
[2] = tested on: Pseudomonas aeruginosa; experiment: Bactericidal activity against Pseudomonas aeruginosa CICC 21630 clinical isolates incubated for 4 hrs followed by culture spread on agar plates and cultured overnight; type: functional; conditions: CICC 21630, 4 h, read-out: MBC>99.9
[3] = tested on: Pseudomonas aeruginosa; experiment: Antimicrobial activity against Pseudomonas aeruginosa 26305 clinical isolates after 24 hrs by NCCLS-protocol based assay; type: functional; conditions: Pseudomonas aeruginosa, 26305, 24 h
[4] = tested on: Escherichia coli; experiment: Bactericidal activity against Escherichia coli K88 incubated for 4 hrs followed by culture spread on agar plates and cultured overnight; type: functional; conditions: K88, 4 h, read-out: MBC>99.9
[5] = tested on: Acinetobacter baumannii; experiment: Bactericidal activity against Acinetobacter baumannii incubated for 4 hrs followed by culture spread on agar plates and cultured overnight; type: functional; conditions: read-out: MBC>99.9
[6] = tested on: Escherichia coli; experiment: Antimicrobial activity against Escherichia coli ATCC 25922 after 24 hrs by NCCLS-protocol based assay; type: functional; conditions: ATCC 25922, 24 h
[7] = tested on: Escherichia coli; experiment: Bactericidal activity against Escherichia coli K99 incubated for 4 hrs followed by culture spread on agar plates and cultured overnight; type: functional; conditions: K99, 4 h, read-out: MBC>99.9
[8] = tested on: Escherichia coli; experiment: Bactericidal activity against Escherichia coli UB1005 incubated for 4 hrs followed by culture spread on agar plates and cultured overnight; type: functional; conditions: UB1005, 4 h, read-out: MBC>99.9
[9] = tested on: Pseudomonas aeruginosa; experiment: Bactericidal activity against Pseudomonas aeruginosa PAO1 incubated for 4 hrs followed by culture spread on agar plates and cultured overnight; type: functional; conditions: PAO1, 4 h, read-out: MBC>99.9
[10] = tested on: Klebsiella pneumoniae; experiment: Antimicrobial activity against Klebsiella pneumoniae after 24 hrs by NCCLS-protocol based assay; type: functional
[11] = tested on: Salmonella typhimurium; experiment: Antimicrobial activity against Salmonella typhimurium C7731 after 24 hrs by NCCLS-protocol based assay; type: functional, Salmonella enterica subsp. enterica serovar Typhimurium; conditions: Salmonella enterica, C7731, 24 h
[12] = tested on: Pseudomonas aeruginosa; experiment: Antimicrobial activity against Pseudomonas aeruginosa ATCC 27853 after 24 hrs by NCCLS-protocol based assay; type: functional; conditions: ATCC 27853, 24 h
[13] = tested on: Escherichia coli; experiment: Bactericidal activity against Escherichia coli 078 incubated for 4 hrs followed by culture spread on agar plates and cultured overnight; type: functional; conditions: Escherichia coli, 078, 4 h; read-out: MBC>99.9
[14] = tested on: Pseudomonas aeruginosa; experiment: Bactericidal activity against Pseudomonas aeruginosa 26305 clinical isolates incubated for 4 hrs followed by culture spread on agar plates and cultured overnight; type: functional; conditions: Pseudomonas aeruginosa, 26305, 4 h; read-out: MBC>99.9
[15] = tested on: Escherichia coli; experiment: Bactericidal activity against Escherichia coli ATCC 25922 incubated for 4 hrs followed by culture spread on agar plates and cultured overnight; type: functional; conditions: ATCC 25922, 4 h, read-out: MBC>99.9
[16] = tested on: Klebsiella pneumoniae; experiment: Bactericidal activity against Klebsiella pneumoniae incubated for 4 hrs followed by culture spread on agar plates and cultured overnight; type: functional; conditions: read-out: MBC>99.9
[17] = tested on: Pseudomonas aeruginosa; experiment: Antimicrobial activity against Pseudomonas aeruginosa PAO1 after 24 hrs by NCCLS-protocol based assay; type: functional; conditions: PAO1, 24 h
[18] = Antimicrobial activity against Salmonella pullorum C7913 after 24 hrs by NCCLS-protocol based assay; type: functional, Salmonella enterica subsp. enterica serovar Pullorum; conditions: Salmonella enterica, C7913, 24 h
[19] = tested on: Salmonella typhimurium; experiment: Antimicrobial activity against Salmonella typhimurium ATCC 14028 after 24 hrs by NCCLS-protocol based assay; type: functional, Salmonella enterica subsp. enterica serovar Typhimurium; conditions: Salmonella enterica, ATCC 14028, 24 h
[20] = tested on: Escherichia coli; experiment: Antimicrobial activity against Escherichia coli UB1005 after 24 hrs by NCCLS-protocol based assay; type: functional; conditions: UB1005, 24 h
[21] = tested on: Salmonella typhimurium; experiment: Bactericidal activity against Salmonella typhimurium ATCC 14028 incubated for 4 hrs followed by culture spread on agar plates and cultured overnight; type: functional, Salmonella enterica subsp. enterica serovar Typhimurium; conditions: Salmonella enterica, ATCC 14028, 4 h; read-out: MBC>99.9
[22] = tested on: Pseudomonas aeruginosa; experiment: Antimicrobial activity against Pseudomonas aeruginosa 25349 clinical isolates after 24 hrs by NCCLS-protocol based assay; type: functional; conditions: Pseudomonas aeruginosa, 25349, 24 h
[23] = tested on: Pseudomonas aeruginosa; experiment: Antimicrobial activity against Pseudomonas aeruginosa CICC 21625 clinical isolates after 24 hrs by NCCLS-protocol based assay; type: functional; conditions: CICC 21625, 24 h
[24] = tested on: Pseudomonas aeruginosa; experiment: Bactericidal activity against Pseudomonas aeruginosa ATCC 27853 incubated for 4 hrs followed by culture spread on agar plates and cultured overnight; type: functional; conditions: ATCC 27853, 4 h, read-out: MBC>99.9
[25] = tested on: Pseudomonas aeruginosa; experiment: Bactericidal activity against Pseudomonas aeruginosa CICC 21625 clinical isolates incubated for 4 hrs followed by culture spread on agar plates and cultured overnight; type: functional; conditions: CICC 21625, 4 h, read-out: MBC>99.9
[26] = tested on: Salmonella typhimurium; experiment: Bactericidal activity against Salmonella typhimurium C7731 incubated for 4 hrs followed by culture spread on agar plates and cultured overnight; type: functional, Salmonella enterica subsp. enterica serovar Typhimurium; conditions: Salmonella enterica, C7731, 4 h; read-out: MBC>99.9
[27] = tested on: Escherichia coli; experiment: Antimicrobial activity against Escherichia coli K88 after 24 hrs by NCCLS-protocol based assay; type: functional; conditions: K88, 24 h
[28] = Bactericidal activity against Salmonella pullorum C7913 incubated for 4 hrs followed by culture spread on agar plates and cultured overnight; type: functional, Salmonella enterica subsp. enterica serovar Pullorum; conditions: Salmonella enterica, C7913, 4 h; read-out: MBC>99.9
[29] = tested on: Pseudomonas aeruginosa; experiment: Antimicrobial activity against Pseudomonas aeruginosa CICC 21630 clinical isolates after 24 hrs by NCCLS-protocol based assay; type: functional; conditions: CICC 21630, 24 h
[30] = tested on: Escherichia coli; experiment: Antimicrobial activity against Escherichia coli K99 after 24 hrs by NCCLS-protocol based assay; type: functional; conditions: K99, 24 h
[31] = tested on: Escherichia coli; experiment: Antimicrobial activity against Escherichia coli 078 after 24 hrs by NCCLS-protocol based assay; type: functional; conditions: Escherichia coli, 078, 24 h
[32] = tested on: Pseudomonas aeruginosa; experiment: Bactericidal activity against Pseudomonas aeruginosa 25349 clinical isolates incubated for 4 hrs followed by culture spread on agar plates and cultured overnight; type: functional; conditions: Pseudomonas aeruginosa, 25349, 4 h; read-out: MBC>99.9

Question: What does the source list for H-IKPIIKPIIKPIIKPIIKPIIKPIIKPIIKPI-NH2?
Answer: MIC95 [1]: 4 µM; MBC [2]: > 64 µM; MIC95 [3]: > 64 µM; MBC [4]: 2 µM; MBC [5]: 4 µM; MIC95 [6]: 16 µM; MBC [7]: 4 µM; MBC [8]: 4 µM; MBC [9]: > 64 µM; MIC95 [10]: 64 µM; MIC95 [11]: > 64 µM; MIC95 [12]: > 64 µM; MBC [13]: > 64 µM; MBC [14]: > 64 µM; MBC [15]: 16 µM; MBC [16]: > 64 µM; MIC95 [17]: > 64 µM; MIC95 [18]: > 64 µM; MIC95 [19]: > 64 µM; MIC95 [20]: 4 µM; MBC [21]: > 64 µM; MIC95 [22]: > 64 µM; MIC95 [23]: > 64 µM; MBC [24]: > 64 µM; MBC [25]: > 64 µM; MBC [26]: > 64 µM; MIC95 [27]: 1 µM; MBC [28]: > 64 µM; MIC95 [29]: > 64 µM; MIC95 [30]: 2 µM; MIC95 [31]: 32 µM; MBC [32]: > 64 µM

Question: Which MIC95 [1] does the source give for H-VKPVVKPVVKPVVKPVVKPVVKPVVKPV-NH2 here?
Answer: Its MIC95 is > 64 µM.

Question: What about the MBC [2] of the same substance?
Answer: Its MBC is > 64 µM.

Question: What about the MIC95 [3] of the same substance?
Answer: The MIC95 was > 64 µM.

Question: And the MBC [4]?
Answer: Its MBC is > 64 µM.

Question: And the MBC [5]?
Answer: Its MBC is > 64 µM.

Question: What about the MIC95 [6] of the same substance?
Answer: Its MIC95 is > 64 µM.

Question: And the MBC [7]?
Answer: The MBC was > 64 µM.

Question: What about the MBC [8] of the same substance?
Answer: The MBC was > 64 µM.

Question: What about the MBC [9] of the same substance?
Answer: Its MBC is > 64 µM.

Question: And the MIC95 [10]?
Answer: The MIC95 was > 64 µM.

Question: And the MIC95 [11]?
Answer: Its MIC95 is > 64 µM.

Question: And the MIC95 [12]?
Answer: Its MIC95 is > 64 µM.

Question: And the MBC [13]?
Answer: The MBC was > 64 µM.

Question: And the MBC [14]?
Answer: The MBC was > 64 µM.

Question: And the MBC [15]?
Answer: Its MBC is > 64 µM.

Question: What about the MBC [16] of the same substance?
Answer: The MBC was > 64 µM.

Question: And the MIC95 [17]?
Answer: Its MIC95 is > 64 µM.

Question: And the MIC95 [18]?
Answer: Its MIC95 is > 64 µM.

Question: What about the MIC95 [19] of the same substance?
Answer: The MIC95 was > 64 µM.

Question: What about the MIC95 [20] of the same substance?
Answer: Its MIC95 is > 64 µM.

Question: What about the MBC [21] of the same substance?
Answer: The MBC was > 64 µM.

Question: And the MIC95 [22]?
Answer: Its MIC95 is > 64 µM.

Question: What about the MIC95 [23] of the same substance?
Answer: Its MIC95 is > 64 µM.

Question: And the MBC [24]?
Answer: The MBC was > 64 µM.

Question: What about the MBC [25] of the same substance?
Answer: The MBC was > 64 µM.

Question: What about the MBC [26] of the same substance?
Answer: Its MBC is > 64 µM.

Question: And the MIC95 [27]?
Answer: The MIC95 was > 64 µM.

Question: What about the MBC [28] of the same substance?
Answer: Its MBC is > 64 µM.

Question: And the MIC95 [29]?
Answer: Its MIC95 is > 64 µM.

Question: And the MIC95 [30]?
Answer: Its MIC95 is > 64 µM.

Question: What about the MIC95 [31] of the same substance?
Answer: The MIC95 was > 64 µM.

Question: What about the MBC [32] of the same substance?
Answer: The MBC was > 64 µM.

Question: For H-IKPIIKPIIKPIIKPIIKPI-NH2, which MIC95 [1] is on record?
Answer: The MIC95 was > 64 µM.

Question: And the MBC [2]?
Answer: Its MBC is > 64 µM.

Question: What about the MIC95 [3] of the same substance?
Answer: The MIC95 was > 64 µM.

Question: And the MBC [4]?
Answer: The MBC was > 64 µM.

Question: And the MBC [5]?
Answer: Its MBC is > 64 µM.

Question: What about the MIC95 [6] of the same substance?
Answer: Its MIC95 is > 64 µM.

Question: What about the MBC [7] of the same substance?
Answer: Its MBC is > 64 µM.

Question: What about the MBC [8] of the same substance?
Answer: Its MBC is > 64 µM.

Question: And the MBC [9]?
Answer: Its MBC is > 64 µM.

Question: What about the MIC95 [10] of the same substance?
Answer: The MIC95 was > 64 µM.

Question: And the MIC95 [11]?
Answer: Its MIC95 is > 64 µM.

Question: What about the MIC95 [12] of the same substance?
Answer: The MIC95 was > 64 µM.

Question: And the MBC [13]?
Answer: The MBC was > 64 µM.

Question: And the MBC [14]?
Answer: The MBC was > 64 µM.

Question: And the MBC [15]?
Answer: The MBC was > 64 µM.

Question: And the MBC [16]?
Answer: Its MBC is > 64 µM.

Question: What about the MIC95 [17] of the same substance?
Answer: The MIC95 was > 64 µM.

Question: And the MIC95 [18]?
Answer: Its MIC95 is > 64 µM.

Question: What about the MIC95 [19] of the same substance?
Answer: The MIC95 was > 64 µM.

Question: What about the MIC95 [20] of the same substance?
Answer: Its MIC95 is > 64 µM.

Question: And the MBC [21]?
Answer: Its MBC is > 64 µM.

Question: What about the MIC95 [22] of the same substance?
Answer: The MIC95 was > 64 µM.

Question: And the MIC95 [23]?
Answer: Its MIC95 is > 64 µM.

Question: And the MBC [24]?
Answer: The MBC was > 64 µM.

Question: What about the MBC [25] of the same substance?
Answer: The MBC was > 64 µM.

Question: And the MBC [26]?
Answer: The MBC was > 64 µM.

Question: What about the MIC95 [27] of the same substance?
Answer: The MIC95 was > 64 µM.

Question: And the MBC [28]?
Answer: The MBC was > 64 µM.

Question: And the MIC95 [29]?
Answer: The MIC95 was > 64 µM.

Question: And the MIC95 [30]?
Answer: Its MIC95 is > 64 µM.

Question: What about the MIC95 [31] of the same substance?
Answer: Its MIC95 is > 64 µM.

Question: What about the MBC [32] of the same substance?
Answer: Its MBC is > 64 µM.

Source: ChEMBL document CHEMBL4316596, “Antimicrobial Peptides with High Proteolytic Resistance for Combating Gram-Negative Bacteria” (J Med Chem, 2019)
